The values that follow are results of earlier work, collected in article PMC8089043 (Journal of controlled release : official journal of the …, 2021).

For data set [1] the following is noted: rats, high doses.
The conditions of data set [2]: in vivo.

For the compound `CC(C)=CCC[C@]1(C)C=Cc2c(O)c3c(c(CC=C(C)C)c2O1)O[C@]12C(=C[C@@H]4C[C@H]1C(C)(C)O[C@@]2(C/C=C(/C)C(=O)O)C4=O)C3=O` [GA, gambogic acid], the “dose exhibiting hepatic and renal toxicities” value in data set [1] is over 120 mg/kg.
In the case of `O=c1oc2cc(O)ccc2c2ccc(O)cc12` [UA, urolithin A], in data set [2], the “safety of diets containing gram quantities” value is “safe”.
